Blank lines part the entries; values can stand above or below the compound they belong to.
Key:
[1] = Evaluation of co-solvents for a clear stable formulation of denatonium benzoate in lamp oil; format: physicochemical; set-up: key to Assessment: Those combinations marked as "FAIL" were observed to exhibit turbidity and insufficient stability in the amount of denaturant introduced to the lamp oil; PASS: success in obtaining a clear stable formulation of the preferred denaturant; conditions: for Assessment: clear stable formulation of denatonium benzoate/"BITREX" in lamp oil, only the co-solvent varied
From the text: The following Table I summarises the results of this evaluation stage, and in particular assesses the success in obtaining a clear stable formulation of the preferred denaturant (denatonium benzoate/ "BITREX"®) in a target commercial product to be denatured (lamp oil). […] In each case, the only critical variation lay in the selection of the co-solvent. Apart from the attempted use of rape seed oil, it is assumed that the co-solvent is essentially a single chemical entity.
(§1) As an illustrative example of procedure, one may prepare a 40ppm "BITREX®" doped lamp oil by simply stirring in a previously prepared 0.1% solution of "BITREX®" in the selected co-solvent TEXANOL® to a level of 4% (all amounts described herein are w/w). A similar procedure was found effective in denaturing, white spirit, dearomatised white spirit, and isoparaffin.

[2] = Denaturing of other liquid hydrocarbons with a BITREX solution in TEXANOL; format: physicochemical; conditions: 0.1% solution of BITREX in co-solvent stirred in; white spirit, dearomatised white spirit and isoparaffin
From the text: as §1

[3] = Alkanol co-solvents enabling introduction of BITREX at the desired level; format: physicochemical; conditions: co-solvent for BITREX in liquid hydrocarbon
[4] = as low as; cited from earlier work
[5] = cited from earlier work

- Assessment [1]: FAIL
Compound: CCCCCCCCCC(=O)OC(C)C [Isopropyldecanoate]

Compound: 2,2,4-trimethylpentan-1,3-diol-monoisobutanoate
- Assessment [1]: PASS
- effectiveness in achieving the objective of the invention ([1]; denatonium benzoate in lamp oil, summary of Table I): highly effective
- effective in denaturing [2]: effective

- effective in enabling introduction of the preferred aversive agent "BITREX" at the desired level [3]: effective
Compound: CCCCCCCCCCCCCCCCO [1-hexadecanol]

- effective in enabling introduction of the preferred aversive agent "BITREX" at the desired level [3]: effective
Compound: CCCCCCCCO [1-octanol]

Compound: CC[N+](CC)(CC(=O)Nc1c(C)cccc1C)Cc1ccccc1 [denatonium benzoate, Denatonium benzoate]
- concentration giving an acceptable level of aversive activity [4]: 10 ppm
- solubility in apolar liquids [5]: extremely insoluble

- Assessment [1]: FAIL
Compound: CCCCC(CC)COC(=O)C(CC)CCCC (centres unmarked) [2-Ethylhexyl-2-ethylhexanoate]

- Assessment [1]: FAIL
Compound: CCCCCCCCCCCC(=O)OCC(CC)CCCC (centres unmarked) [2-Ethylhexyllaurate]

- Assessment [1]: FAIL
Compound: CCCCCCCCCCCC(=O)OC(C)C [Isopropyllaurate]

Reference: patent EP1080165B1, “HYDROCARBON LIQUID FORMULATION” (MACFARLAN SMITH LIMITED, priority 1998, dated 1999)
